Data reported in ChEMBL document CHEMBL1201862, “PubChem BioAssay data set” (2004).
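Exposure lasted 48 hours, with cells grown in 96-well plates and compounds tested at five concentrations. The concentration for 50% growth inhibition is given as GI50.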 The source made the active and inactive calls. No stated cut-off is given here; in the data, active = GI50 up to about 1.1 µM and inactive = higher.

Legend:
Assay in all cases: inhibition of tumour cell growth, NCI panel, 48 h
[1] = test system: U-251
[2] = test system: SNB-75
[3] = test system: SF-268
[4] = test system: MDA-MB-231
[5] = test system: SNB-19
[6] = test system: PC-3
[7] = test system: HCT-116
[8] = test system: RXF 393
[9] = test system: KM12
[10] = test system: K562
[11] = test system: SN12C
[12] = test system: MOLT-4
[13] = test system: OVCAR-5
[14] = test system: HT-29
[15] = test system: T47D
[16] = test system: NCI-H23
[17] = test system: NCI-H460
[18] = test system: A498
[19] = test system: OVCAR-8
[20] = test system: MCF7
[21] = test system: BT-549
[22] = test system: ACHN
[23] = test system: Malme-3M
[24] = test system: M14
[25] = test system: SR
[26] = test system: SK-OV-3
[27] = test system: MDA-MB-435
[28] = test system: CCRF-CEM
[29] = test system: UACC-257
[30] = test system: SK-MEL-5
[31] = test system: Hs-578T
[32] = test system: UACC-62
[33] = test system: UO-31
[34] = test system: NCI-H522
[35] = test system: HOP-62
[36] = test system: MDA-N
[37] = test system: DU-145
[38] = test system: NCI-H226
[39] = test system: SF-295
[40] = test system: HCT-15
[41] = test system: SK-MEL-2
[42] = test system: CAKI-1
[43] = test system: EKVX
[44] = test system: SW-620
[45] = test system: COLO 205
[46] = test system: HL-60
[47] = test system: SK-MEL-28
[48] = test system: RPMI-8226
[49] = test system: NCI/ADR-RES
[50] = test system: HOP-92
[51] = test system: 786-0
[52] = test system: HCC 2998
[53] = test system: IGROV-1
[54] = test system: OVCAR-3
[55] = test system: A549
[56] = test system: OVCAR-4
[57] = test system: TK-10
[58] = test system: LOX IMVI
[59] = test system: SF-539

In the case of `COc1ncc(C#CC(=O)c2ccccc2OC)c(OC)n1`, the GI50 [1] is reported as 3890 nM (inactive), the GI50 [2] is reported as 4030 nM (inactive) and the GI50 [3] is reported as 3610 nM (inactive). For the same molecule, the GI50 [4] was 920 nM (active), the GI50 [5] was 15000 nM (inactive) and the GI50 [6] was 1860 nM (inactive). For the same molecule, the GI50 [7] was 4980 nM (inactive), the GI50 [8] was 1710 nM (inactive) and the GI50 [9] was 5700 nM (inactive). The GI50 [10] was 390 nM (active), the GI50 [11] was 684 nM (active) and the GI50 [12] was 386 nM (active). The GI50 [13] was 3410 nM (inactive), the GI50 [14] was 1570 nM (inactive) and the GI50 [15] was 2930 nM (inactive). For the same molecule, the GI50 [16] was 2730 nM (inactive), the GI50 [17] was 6340 nM (inactive) and the GI50 [18] was 18400 nM (inactive). The GI50 [19] was 2060 nM (inactive), the GI50 [20] was 736 nM (active) and the GI50 [21] was 1930 nM (inactive). The GI50 [22] was 1690 nM (inactive), the GI50 [23] was 1610 nM (inactive) and the GI50 [24] was 1780 nM (inactive). The GI50 [25] was 202 nM (active), the GI50 [26] was 25600 nM (inactive) and the GI50 [27] was 2780 nM (inactive). The GI50 [28] was 99.5 nM (active), the GI50 [29] was 3520 nM (inactive) and the GI50 [30] was 2060 nM (inactive). The GI50 [31] was 9980 nM (inactive), the GI50 [32] was 2600 nM (inactive) and the GI50 [33] was 1550 nM (inactive). For the same molecule, the GI50 [34] was 738 nM (active), the GI50 [35] was 17700 nM (inactive) and the GI50 [36] was 1640 nM (inactive). The GI50 [37] was 5870 nM (inactive), the GI50 [38] was 1420 nM (inactive) and the GI50 [39] was 16900 nM (inactive). The GI50 [40] was 621 nM, the GI50 [41] was 2300 nM (inactive) and the GI50 [42] was 1770 nM (inactive). For the same molecule, the GI50 [43] was 3250 nM (inactive), the GI50 [44] was 780 nM (active) and the GI50 [45] was 2000 nM (inactive). For the same molecule, the GI50 [46] was 432 nM (active), the GI50 [47] was 2860 nM (inactive) and the GI50 [48] was 2610 nM (inactive). For the same molecule, the GI50 [49] was 2010 nM (inactive), the GI50 [50] was 2320 nM (inactive) and the GI50 [51] was 1860 nM (inactive). The GI50 [52] was 6350 nM (inactive), the GI50 [53] was 1820 nM (inactive) and the GI50 [54] was 3150 nM (inactive). The GI50 [55] was 5980 nM (inactive), the GI50 [56] was 5780 nM (inactive) and the GI50 [57] was 891 nM (active). For the same molecule, the GI50 [58] was 281 nM (active).

With `CC(C)c1cc2c(c(O)c1O)[C@@]1(C)CCCC(C)(C)C1=C(O)C2` the GI50 [1] was 1510 nM (inactive), the GI50 [2] was 984 nM (active) and the GI50 [3] was 1500 nM (inactive). The GI50 [4] was > 50000 nM (inactive), the GI50 [5] was 2420 nM (inactive) and the GI50 [6] was 1190 nM (inactive). The GI50 [7] was 2270 nM (inactive), the GI50 [8] was 964 nM (active) and the GI50 [9] was 1630 nM (inactive). For the same molecule, the GI50 [10] was 1600 nM (inactive), the GI50 [11] was 20900 nM (inactive) and the GI50 [12] was 1400 nM (inactive). The GI50 [13] was 1830 nM (inactive), the GI50 [14] was 6750 nM (inactive) and the GI50 [15] was 2040 nM (inactive). For the same molecule, the GI50 [16] was 1540 nM (inactive), the GI50 [17] was 1510 nM (inactive) and the GI50 [18] was 1120 nM (active). For the same molecule, the GI50 [19] was 1540 nM (inactive), the GI50 [20] was 982 nM (active) and the GI50 [21] was 1360 nM (inactive). For the same molecule, the GI50 [22] was 1570 nM (inactive), the GI50 [23] was 1260 nM (inactive) and the GI50 [24] was 2360 nM (inactive). The GI50 [25] was 1700 nM (inactive), the GI50 [27] was 1230 nM (inactive) and the GI50 [28] was 822 nM (active). For the same molecule, the GI50 [29] was 1130 nM (inactive), the GI50 [30] was 1030 nM (active) and the GI50 [31] was 1810 nM (inactive). The GI50 [32] was 31800 nM (inactive), the GI50 [33] was 1360 nM (inactive) and the GI50 [59] was 726 nM (active). For the same molecule, the GI50 [34] was 1150 nM (inactive), the GI50 [35] was 2780 nM (inactive) and the GI50 [36] was 1770 nM (inactive). For the same molecule, the GI50 [37] was 3030 nM (inactive), the GI50 [38] was > 50000 nM (inactive) and the GI50 [39] was 1530 nM (inactive). The GI50 [40] was 1680 nM, the GI50 [41] was 968 nM (active) and the GI50 [42] was 1050 nM (active). The GI50 [43] was 1370 nM (inactive), the GI50 [44] was 1460 nM (inactive) and the GI50 [45] was 2840 nM (inactive). For the same molecule, the GI50 [46] was 1340 nM (inactive), the GI50 [47] was 1840 nM (inactive) and the GI50 [48] was 946 nM (active). The GI50 [49] was 809 nM (active), the GI50 [50] was 817 nM (active) and the GI50 [51] was 2510 nM (inactive). For the same molecule, the GI50 [52] was 1010 nM (active), the GI50 [53] was 1040 nM (active) and the GI50 [54] was 1380 nM (inactive). The GI50 [55] was 1660 nM (inactive), the GI50 [56] was 1290 nM (inactive) and the GI50 [57] was 1910 nM (inactive). For the same molecule, the GI50 [58] was 1210 nM (inactive).
